Source: article PMC5678437, “A new antagonist for CCR4 attenuates allergic lung inflammation in a mouse model of asthma” (Scientific Reports, 2017)

Legend:
Assay type in all cases: cell-based
[1] = biological target: T1, CCR2B (Homo sapiens, UniProt P41597); test: Chemotaxis inhibition assay for receptor specificity, HEK293-CCR2B; details: 0.2, 1, 5, 25 μM, 30 min pretreatment
T1 construct: expressed in transfected cells; host or cells: HEK293, pcDB-CCR2B plasmid made in the authors' laboratory
T1 sequence (P41597 1-360 isoform P41597-2): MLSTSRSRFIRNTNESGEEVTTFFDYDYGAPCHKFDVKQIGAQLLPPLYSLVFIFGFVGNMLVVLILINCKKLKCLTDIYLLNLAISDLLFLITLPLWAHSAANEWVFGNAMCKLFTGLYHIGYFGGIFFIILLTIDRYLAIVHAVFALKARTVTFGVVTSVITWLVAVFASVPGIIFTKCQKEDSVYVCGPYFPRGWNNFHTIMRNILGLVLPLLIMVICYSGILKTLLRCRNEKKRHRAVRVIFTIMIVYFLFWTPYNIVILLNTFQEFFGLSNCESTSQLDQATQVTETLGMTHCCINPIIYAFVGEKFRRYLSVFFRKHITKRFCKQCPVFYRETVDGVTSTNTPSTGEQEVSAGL
Procedure: (§1) HEK293 cells were transfected with different chemokine receptors. The corresponding chemokines of different receptors were placed in the lower chambers. The transfected cells were pretreated with different concentrations of Compound 8a or 1‰ DMSO for 30 min at a density of 1 × 10^6 cells/ml and added to the upper chambers, the final concentration of the compound is: 0.2 μM, 1 μM, 5 μM, and 25 μM, respectively.

[2] = biological target: T2, CXCR4 (Homo sapiens, UniProt P61073); test: Chemotaxis inhibition assay for receptor specificity, HEK293-CXCR4; details: 0.2, 1, 5, 25 μM, 30 min pretreatment
T2 construct: expressed in transfected cells; host or cells: HEK293; plasmid from Chinese National Human Genome Center
Procedure: as §1

[3] = biological target: T1, CCR2B; test: Chemotaxis assay for receptor specificity, HEK293-CCR2B; details: compound as chemoattractant in lower chamber, 0.2, 1, 5, 25 μM
Procedure: HEK293 cells were transfected with different chemokine receptors. Compound 8a with DMSO was diluted to 0.2 mM, 1 mM, 5 mM and 25 mM, and then we used RPMI 1640 medium containing 0.1% BSA for dilution. The final concentration is: 0.2 μM, 1 μM, 5 μM and 25 μM. DMSO was also diluted 1000-fold with 0.1% BSA RPMI 1640 medium. Chemokines was also diluted to an appropriate concentration. The dilutions of Compound 8a, 1‰ DMSO, the corresponding chemokines of different receptors and 0.1% BSA RPMI 1640 medium were placed in the lower chambers (27.5 μl/well). The transfected HEK293 cells were resuspended in the same medium at a density of 1 × 10^6 cells/ml and added to the upper chambers (55 μl/well).

T2 sequence (P61073 1-356 isoform P61073-2): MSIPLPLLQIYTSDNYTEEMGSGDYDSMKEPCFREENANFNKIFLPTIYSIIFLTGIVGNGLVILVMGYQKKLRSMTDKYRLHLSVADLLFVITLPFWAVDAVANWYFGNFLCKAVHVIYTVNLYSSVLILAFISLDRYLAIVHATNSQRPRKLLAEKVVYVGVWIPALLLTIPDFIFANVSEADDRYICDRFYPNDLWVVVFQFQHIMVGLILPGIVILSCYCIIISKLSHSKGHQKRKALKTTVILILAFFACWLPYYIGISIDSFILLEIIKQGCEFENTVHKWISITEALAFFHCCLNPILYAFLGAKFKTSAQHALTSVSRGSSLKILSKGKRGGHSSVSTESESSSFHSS

- inhibition of chemotaxis of HEK293-CCR2B to its ligand [1]: few influence
- inhibition of chemotaxis of HEK293-CXCR4 to its ligand [2]: few influence
- chemotaxis effect of the compound on HEK293-CCR2B [3]: didn’t exert chemotaxis effects
SMILES: O=C(C1CCCCN1)N1CCN(c2nc(Cl)cc(NCc3ccc(Cl)cc3Cl)n2)CC1 (stereo not drawn) [compound 8a, {4-[4-Chloro-6-(2,4-dichloro-benzylamino)-pyrimidin-2-yl]-piperazin-1-yl}-piperidin-2-yl-methanone]
